For orientation: IC50 means the point on the concentration scale where inhibition reaches its midpoint.

The structures appear in SMILES notation. Some results are limits rather than exact numbers.

In the assay the target is T1, human recombinant full-length fatty acid synthase (FASN) (Homo sapiens, UniProt P49327).
T1 construct: human recombinant full-length fatty acid synthase; made in house; host or cells: SF9 cells
T1 sequence (P49327 whole entry): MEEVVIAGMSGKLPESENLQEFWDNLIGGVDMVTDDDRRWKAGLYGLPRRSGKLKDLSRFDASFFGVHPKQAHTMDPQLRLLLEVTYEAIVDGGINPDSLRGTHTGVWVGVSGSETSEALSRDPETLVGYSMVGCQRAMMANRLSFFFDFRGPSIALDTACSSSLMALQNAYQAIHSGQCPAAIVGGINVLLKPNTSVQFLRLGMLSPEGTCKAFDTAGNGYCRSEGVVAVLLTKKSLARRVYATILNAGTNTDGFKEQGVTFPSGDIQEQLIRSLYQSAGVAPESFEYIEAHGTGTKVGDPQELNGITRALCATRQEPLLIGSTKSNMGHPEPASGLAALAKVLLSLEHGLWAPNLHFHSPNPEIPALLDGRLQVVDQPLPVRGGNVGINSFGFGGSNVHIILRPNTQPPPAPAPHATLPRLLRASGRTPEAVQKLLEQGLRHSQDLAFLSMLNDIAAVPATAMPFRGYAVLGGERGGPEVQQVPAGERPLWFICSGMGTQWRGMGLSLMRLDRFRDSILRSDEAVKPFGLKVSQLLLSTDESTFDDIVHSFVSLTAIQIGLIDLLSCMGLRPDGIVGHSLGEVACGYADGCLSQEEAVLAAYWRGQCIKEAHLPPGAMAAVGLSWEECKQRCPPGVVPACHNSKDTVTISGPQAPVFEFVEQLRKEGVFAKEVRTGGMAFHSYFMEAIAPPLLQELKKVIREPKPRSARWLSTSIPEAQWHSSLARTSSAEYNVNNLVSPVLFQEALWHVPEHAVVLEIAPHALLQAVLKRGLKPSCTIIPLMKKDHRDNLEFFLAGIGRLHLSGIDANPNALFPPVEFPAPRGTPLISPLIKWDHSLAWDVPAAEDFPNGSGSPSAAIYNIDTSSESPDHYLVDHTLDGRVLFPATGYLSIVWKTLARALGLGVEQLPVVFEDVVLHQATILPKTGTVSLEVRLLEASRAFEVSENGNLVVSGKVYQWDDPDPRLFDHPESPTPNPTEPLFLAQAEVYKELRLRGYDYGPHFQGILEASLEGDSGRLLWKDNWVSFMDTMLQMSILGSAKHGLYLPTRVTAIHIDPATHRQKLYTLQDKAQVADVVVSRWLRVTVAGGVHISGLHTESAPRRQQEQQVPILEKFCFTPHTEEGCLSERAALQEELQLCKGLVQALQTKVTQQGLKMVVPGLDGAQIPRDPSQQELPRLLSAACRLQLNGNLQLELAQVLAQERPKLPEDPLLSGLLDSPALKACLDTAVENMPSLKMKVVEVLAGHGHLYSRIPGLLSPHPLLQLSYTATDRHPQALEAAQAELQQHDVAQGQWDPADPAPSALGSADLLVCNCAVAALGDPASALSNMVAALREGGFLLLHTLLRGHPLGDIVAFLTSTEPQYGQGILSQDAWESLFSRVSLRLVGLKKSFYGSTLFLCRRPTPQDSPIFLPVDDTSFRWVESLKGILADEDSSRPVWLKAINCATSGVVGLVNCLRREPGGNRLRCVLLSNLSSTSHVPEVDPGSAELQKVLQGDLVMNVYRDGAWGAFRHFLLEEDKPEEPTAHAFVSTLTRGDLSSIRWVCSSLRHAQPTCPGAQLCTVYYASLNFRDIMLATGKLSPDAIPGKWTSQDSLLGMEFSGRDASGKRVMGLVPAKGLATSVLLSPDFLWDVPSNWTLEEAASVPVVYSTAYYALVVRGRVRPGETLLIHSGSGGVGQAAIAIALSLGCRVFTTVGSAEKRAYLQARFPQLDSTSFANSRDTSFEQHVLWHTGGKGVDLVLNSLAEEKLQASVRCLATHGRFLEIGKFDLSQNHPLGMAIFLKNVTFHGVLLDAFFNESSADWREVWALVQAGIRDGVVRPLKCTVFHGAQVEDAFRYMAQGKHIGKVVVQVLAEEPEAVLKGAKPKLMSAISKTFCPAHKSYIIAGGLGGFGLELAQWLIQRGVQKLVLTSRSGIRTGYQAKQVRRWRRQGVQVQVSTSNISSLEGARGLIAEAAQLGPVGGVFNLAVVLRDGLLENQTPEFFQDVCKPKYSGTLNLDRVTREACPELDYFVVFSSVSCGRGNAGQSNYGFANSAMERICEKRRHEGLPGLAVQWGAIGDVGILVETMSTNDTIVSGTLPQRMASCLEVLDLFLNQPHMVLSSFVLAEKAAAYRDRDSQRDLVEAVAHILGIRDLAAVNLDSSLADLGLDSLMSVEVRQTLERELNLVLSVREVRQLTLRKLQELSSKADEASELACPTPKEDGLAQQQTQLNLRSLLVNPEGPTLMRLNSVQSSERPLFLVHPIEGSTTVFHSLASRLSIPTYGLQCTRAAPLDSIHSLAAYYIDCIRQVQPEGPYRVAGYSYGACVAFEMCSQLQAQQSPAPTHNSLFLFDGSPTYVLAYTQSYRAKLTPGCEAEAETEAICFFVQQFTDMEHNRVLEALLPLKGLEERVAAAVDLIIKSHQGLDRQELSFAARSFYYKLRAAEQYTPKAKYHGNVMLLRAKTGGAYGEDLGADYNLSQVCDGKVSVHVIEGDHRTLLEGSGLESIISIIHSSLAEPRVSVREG
The assay is described as follows: Biochemical activity testing of human fatty acid synthase FASN (NADPH fluorescence intensity assay). Particulars: NADPH fluorescence decrease (ex 340 nm / em 460 nm), 30 minutes at room temperature, read-out: IC50 FASN (enzyme assay). The source says:
aq (aqueous), h (hour), g (gram), L (liter), mg (milligram), MHz (Megahertz), (melting point), eq (equivalent), mL (milliliter), L (microliter), ACN (acetonitrile), AcOH (acetic acid), CDCl3 (deuterated chloroform), CD3OD (deuterated methanol), CH3CN (acetonitrile), c-hex (cyclohexane), DCC (dicyclohexyl carbodiimide), DCM (dichloromethane), DIC (diisopropyl carbodiimide), DIEA (diisopropylethyl-amine), DMF (dimethylformamide), DMSO (dimethylsulfoxide), DMSO-d6 (deuterated dimethylsulfoxide), EDC (1-(3-dimethyl-amino-propyl)-3-ethylcarbodiimide), ESI (Electro-spray ionization), EtOAc (ethyl acetate), Et2O (diethyl ether), EtOH (ethanol), HATU (dimethylamino-([1,2,3]triazolo[4,5-b]pyridin-3-yloxy)-methylene]-dimethylammonium hexafluorophosphate), HPLC (High Performance Liquid Chromatography), i-PrOH (2-propanol), K2CO3 (potassium carbonate), LC (Liquid Chromatography), MeOH (methanol), MgSO4 (magnesium sulfate), MS (mass spectrometry), MTBE (Methyl tert-butyl ether), NaHCO3 (sodium bicarbonate), NaBH4 (sodium borohydride), NMM (N-methyl morpholine), NMR (Nuclear Magnetic Resonance), PyBOP (benzotriazole-1-yl-oxy-trispyrrolidino-phosphonium hexafluorophosphate), RT (room temperature), Rt (retention time), SPE (solid phase extraction), TBTU (2-(1-H-benzotriazole-1-yl)-1,1,3,3-tetramethyluromium tetrafluoro borate), TEA (triethylamine), TFA (trifluoroacetic acid), THF (tetrahydrofuran), TLC (Thin Layer Chromatography), UV (Ultraviolet). Description of the In Vitro Assays Abbreviations: GST=Glutathione-S-transferase FRET=Fluorescence resonance energy transfer HTRF®=(homogenous time resolved fluorescence) HEPES=4-(2-hydroxyethyl)-1-piperazine ethanesulfonic acid buffer DTT=Dithiothreitol BSA=bovine serum albumin CHAPS=detergent; CHAPS=3[(3-cholamidopropyl)dimethylammonio]-1-propanesulfonate Biochemical Activity Testing of Human Fatty Acid Synthase FASN
Fatty acid synthase FASN is a multifunctional enzyme with seven catalytic activities thereby synthesising long chain fatty acids especially palmitoyl-CoA in the presence of co-factor NADPH starting from the substrates acetyl-CoA and malonyl-CoA. The reductive synthesis is realized by the oxidation of NADPH to NADP. Since NADPH has a high fluorescence intensity quantum yield compared to NADP with excitation at 340 nm and emission at 460 nm, the reaction can be monitored via the decrease in fluorescence intensity. The biochemical FASN activity testing was performed as 384 well two-time-point kinetic fluorescence intensity assay format in Greiner low volume medium binding 384-well black microtiter plates in a total assay volume of 8 μl and was used for high throughput screen. In each well 3 μl 40 nM human recombinant full-length fatty acid synthase (produced in-house in SF9 cells) were dispensed in the following assay buffer: 50 mM potassium phosphate buffer pH 7.0, 0.005% (w/v) BSA, 2 mM Glutathione, 0.02% Tween-20. Then 2 μl of 200 μM NADPH in assay buffer were added, followed by the addition of the test compounds in 10 dilution concentrations starting with 30 μM (final concentration) to get a final DMSO content of 1% (v/v). The mixture was incubated for at least 15 min at room temperature. After the pre-incubation the enzymatic reaction was started by the addition of 2 μl substrate solution (80 μM acetyl-CoA, 240 μM malonyl-CoA). A first fluorescence intensity measurement (time point one) was performed with an Envision multimode reader (Perkin Elmer LAS Germany GmbH) at excitation wavelength 340 nm (lamp mode) and emission wavelength 460 nm. The reaction was incubated for 30 minutes at room temperature. After this the fluorescence intensity was measured again in the Envision using the same parameters as described above (second time point measurement). The data were analysed by subtracting the first time point measurement value from the second time point measurement value (after the enzymatic reaction). The differences of the emission signals were determined. […]
As for `CCNC(=O)[C@H]1CC[C@@H](N(C)C(=O)c2ccc(-c3cn4ccc(C#N)cc4n3)cc2)C1` [Compound A87, 4-(7-cyano-imidazo[1,2-a]pyridin-2-yl)-N-((1R,3S)-3-ethylcarbamoyl-cyclopentyl)-N-methyl-benzamide], the IC50 is 0.3 to 3 µM.
Next, `CCNC(=O)[C@H]1CC[C@@H](N(C)C(=O)c2ccc(-c3noc(C)n3)cc2)C1` [Compound A88, N-((1R,3S)-3-ethylcarbamoyl-cyclopentyl)-N-methyl-4-(5-methyl-[1,2,4]oxadiazol-3-yl)-benzamide]: 3 to 50 µM.
As for `C[C@@H](CO)NC(=O)[C@H]1CC[C@@H](N(C)C(=O)c2ccc(-c3nc4ccccc4o3)cc2)C1` [Compound A90, 4-benzoxazol-2-yl-N-[(1R,3S)-3-((S)-2-hydroxy-1-methyl-ethylcarbamoyl)-cyclopentyl]-N-methyl-benzamide], the IC50 is 0.3 to 3 µM.
Regarding `C[C@H](CO)NC(=O)[C@H]1CC[C@@H](N(C)C(=O)c2ccc(-c3nc4ccccc4o3)cc2)C1` [Compound A91, 4-benzoxazol-2-yl-N-[(1R,3S)-3-((R)-2-hydroxy-1-methyl-ethylcarbamoyl)-cyclopentyl]-N-methyl-benzamide], the 50% inhibitory concentration (IC50) is under 0.3 µM.
For `COC[C@H](C)NC(=O)[C@H]1CC[C@@H](N(C)C(=O)c2ccc(-c3nc4ccccc4o3)cc2)C1` [Compound A92, 4-benzoxazol-2-yl-N-[(1R,3S)-3-((S)-2-methoxy-1-methyl-ethylcarbamoyl)-cyclopentyl]-N-methyl-benzamide], the IC50 was in the range of 0.3 to 3 µM.
As for `CCNC(=O)[C@H]1CC[C@@H](N(C)C(=O)c2ccc(-c3nc4cc(S(N)(=O)=O)ccc4o3)cc2)C1` [Compound A93, N-((1R,3S)-3-ethylcarbamoyl-cyclopentyl)-N-methyl-4-(5-sulfamoyl-benzooxazol-2-yl)-benzamide], the figure is 3 to 50 µM; as for `CCNC(=O)[C@H]1CC[C@@H](N(C)C(=O)c2ccc(-c3nc4cc(F)cc(F)c4o3)cc2)C1` [Compound A96, 4-(5,7-difluoro-benzoxazol-2-yl)-N-((1R,3S)-3-ethylcarbamoyl-cyclopentyl)-N-methyl-benzamide], under 0.3 µM.
With `CCNC(=O)[C@H]1CC[C@@H](N(C)C(=O)c2ccc(-c3nc4ccc(F)cc4o3)cc2)C1` [Compound A98, N-((1R,3S)-3-ethylcarbamoyl-cyclopentyl)-4-(6-fluoro-benzooxazol-2-yl)-N-methyl-benzamide], the IC50 was under 0.3 µM.
With `CN(C(=O)c1ccc(-c2nc3ccccc3o2)cc1)[C@@H]1CC[C@H](C(=O)NC(C)(C)CO)C1` [Compound A99, 4-benzoxazol-2-yl-N-[(1R,3S)-3-(2-hydroxy-1,1-dimethyl-ethylcarbamoyl)-cyclopentyl]-N-methyl-benzamide], the IC50 fell in the range of 0.3 to 3 µM.
As for `CCNC(=O)[C@H]1CC[C@@H](N(C)C(=O)c2ccc(-c3nc4cc(F)c(F)cc4o3)cc2)C1` [Compound A101, 4-(5,6-difluoro-benzoxazol-2-yl)-N-((1R,3S)-3-ethylcarbamoyl-cyclopentyl)-N-methyl-benzamide], the figure is under 0.3 µM.
Turning to `CCNC(=O)[C@H]1CC[C@@H](N(C)C(=O)c2ccc(-c3cccnc3)cc2)C1` [Compound A102, N-((1R,3S)-3-ethylcarbamoyl-cyclopentyl)-N-methyl-4-pyridin-3-yl-benzamide], the IC50 was under 0.3 µM.
As for `CCNC(=O)[C@H]1CC[C@@H](N(C)C(=O)c2ccc(-c3ccc(C#N)cc3)cc2)C1` [Compound A103, 4′-cyano-biphenyl-4-carboxylic acid ((1R,3S)-3-ethylcarbamoyl-cyclopentyl)-methyl-amide], the figure is under 0.3 µM; as for `CCNC(=O)[C@H]1CC[C@@H](N(C)C(=O)c2ccc(-c3ccc(F)cc3)cc2)C1` [Compound A104, 4′-fluoro-biphenyl-4-carboxylic acid ((1R,3S)-3-ethylcarbamoyl-cyclopentyl)-methyl-amide], under 0.3 µM; as for `CN(C(=O)c1ccc(-c2nc3ccccc3o2)cc1)[C@@H]1CC[C@H](C(=O)NCCO)C1` [Compound A106, 4-benzoxazol-2-yl-N-[(1R,3S)-3-(2-hydroxy-ethylcarbamoyl)-cyclopentyl]-N-methyl-benzamide], under 0.3 µM.
On to `CCNC(=O)[C@H]1CC[C@@H](N(C)C(=O)c2ccc(-c3cccc4[nH]ncc34)cc2)C1` [Compound A107, N-((1R,3S)-3-ethylcarbamoyl-cyclopentyl)-4-(1H-indazol-4-yl)-N-methyl-benzamide], for which the IC50 is under 0.3 µM.
`CN(C(=O)c1ccc(-c2nc3ccccc3o2)cc1)[C@@H]1CC[C@H](C(=O)NC2(CO)CC2)C1` [Compound A108, 4-benzoxazol-2-yl-N-[(1R,3S)-3-(1-hydroxymethyl-cyclopropylcarbamoyl)-cyclopentyl]-N-methyl-benzamide]: the half-maximal inhibitory concentration (IC50) fell in the range of 0.3 to 3 µM.

Source of the values: patent US9732032B2, “3-aminocyclopentane carboxamide derivatives” (Merck Patent GmbH, priority 2012, dated 2017).
